Results from article PMC9221509, “Discovery of a Novel Antimicrobial Peptide, Temporin-PKE, from the Skin Secretion of Pelophylax kl. esculentus, and Evaluation of Its Structure-Activity Relationships” (Biomolecules, 2022).
Like-named read-outs stand apart in the source and are kept apart here. Non-standard residues stand in square brackets, D forms with d. Residues, ends and D or L forms follow the SMILES beside them. No end group written: not given here.

Tests used:
[1] = tested on: P. aeruginosa (B004 V2S2 B); experiment: microbe, parasite or virus in culture; format: cell-based, Pseudomonas aeruginosa; conditions: B004 V2S2 B; for MBC: 18 h; for MIC: 24 h
Method: (§1) The antimicrobial activities of peptides were evaluated against the Gram-positive bacteria, S. aureus (ATCC 6538), methicillin-resistant Staphylococcus aureus (MRSA) (NCTC 12493), Enterococcus faecalis (E. faecalis) (NCTC 12697); the Gram-negative bacteria, E. coli (ATCC CRM 8739), Klebsiella pneumoniae (K. pneumoniae) (ATCC 43816), Pseudomonas aeruginosa (P. aeruginosa) (ATCC CRM 9027); and the yeast, Candida albicans (C. albicans) (ATCC CRM 10231). Clinical isolates of MRSA (B042 V2E1 A), E. coli (ATCC BAA-2340), K. pneumoniae (ATCC BAA-1705), and P. aeruginosa (B004 V2S2 B) were also used to determine their antimicrobial activities. The suspension of microorganisms in the logarithmic growth phase with a specific final density (Gram-negative and Gram-positive bacteria: 5 × 10^5 CFU/mL; yeast: 1 × 10^6 CFU/mL) was incubated with different peptide concentrations from 1 µM to 512 µM at 37 °C for 24 h. PBS was used as the negative control, and norfloxacin and amphotericin B were selected as the positive control for bacteria and yeast, respectively. Since the Norfloxacin had weak activities against P. aeruginosa (B004 V2S2 B) and K. pneumoniae (ATCC BAA 1705), gentamicin was used as the positive control for these two bacterial strains. The absorbance of each well was obtained using a microplate reader (EL808, Biolise BioTek, Winooski, VT, USA) set at 550 nm wavelength. The MIC value was the lowest concentration of a peptide that inhibits visible bacterial growth. Once the MIC values were determined, an aliquot from the bacterial culture exposed to the peptide at or above its MIC value was inoculated on a Mueller Hinton agar (MHA) and was incubated at 37 for 18 h. The MBC value was the lowest concentration of a peptide that kills 99.9% of bacteria.

[2] = tested on: P. aeruginosa (ATCC CRM 9027); experiment: microbe, parasite or virus in culture; format: cell-based, Pseudomonas aeruginosa; conditions: for MBC: ATCC CRM 9027, 18 h; for MIC: ATCC CRM 9027, 24 h
Method: as §1

[3] = tested on: E. faecalis (NCTC 12697) biofilm; format: cell-based, Enterococcus faecalis; conditions: NCTC 12697, 24 h
Method: (§2) The anti-biofilm activities of the peptides against S. aureus (ATCC 6538), MRSA (NCTC 12493), E. faecalis (NCTC 12697), E. coli (ATCC CRM 8739), K. pneumoniae (ATCC 43816), and P. aeruginosa (ATCC CRM 9027), were evaluated. For the MBIC assay, 99 µL of bacterial suspension (5 × 10^5 CFU/mL) was mixed with 1 µL of serial dilutions (from 100 µM to 51,200 µM) of temporin-PKE and its analogues in a 96-well plate, and the plate was incubated in a moist shaking incubator at a speed of 200 rpm at 37 °C for 24 h. For the MBEC assay, 100 µL of bacterial suspension (5 × 10^5 CFU/mL) in each well was seeded in a new 96-well plate, and the plate was put into the same shaking incubator for 24 h incubation to allow biofilm formation on the well. After biofilm formation, the biofilm in the plate was washed with PBS twice. The PBS was aspirated between washes to remove planktonic bacterial cells. The washed biofilm in each well was treated with 100 µL of serial dilutions (from 1 µM to 512 µM) of the test peptides. Then, the plate was incubated in the same shaking incubator for another 24 h. After being washed by PBS twice and fixed with methanol, the biofilm in each well was incubated with 100 µL of 0.1% crystal violet for 30 min, and the stained biofilm was dissolved in 100 µL of glacial acidic acid after drying. The solutions were transferred to a new microplate, and the absorbance of each well was measured using a microplate reader (EL808, Biolise BioTek, Winooski, VT, USA) set to 595 nm wavelength. The MBIC was the minimum concentration of the peptide showing no biofilm formation. The MBEC is the lowest concentration of the peptide capable of eradicating the mature biofilms, which had no biofilm in the well.

[4] = tested on: P. aeruginosa (ATCC CRM 9027) biofilm; format: cell-based, Pseudomonas aeruginosa; conditions: ATCC CRM 9027, 24 h
Method: as §2

NCI-H838 (H838) cells = format: cell-based; conditions: 24 h
Method: (§3) The cytotoxicity of the peptides against the human epidermal keratinocyte line, HaCaT, was tested using the MTT cell viability assay as described in a previous study. The 100 µL of the cell suspension in a complete DMEM medium with a density of 10,000 cells/mL was seeded in a 96-well plate and incubated overnight at 37 °C in a humidified 5% CO2 atmosphere. After 4 h of starvation in a serum-free medium, 100 μL of serial dilutions (from 10^−9 M to 10^−4 M) of temporin-PKE and its analogues was added to each well, and the plate was incubated for 24 h. The serum-free medium and 0.1% Triton X-100 were used as the negative and positive control, respectively. Then, MTT solution, at a volume of 10 μL, was added to each well, and the plate was incubated for 2 h. After this, the medium was replaced by 100 μL of DMSO, and plates were put in the shaking incubator for 15 min. The absorbance of each well was measured using a microplate reader (EL808, Biolise BioTek, Winooski, VT, USA) set to a wavelength of 570 nm. The equation used to calculate the viability of the cells is shown below: Cell viability (%)=A−Ab/An−Ab×100% where A represents the absorbance of each treatment group, Ab represents the average absorbance of the wells in the blank control group (cells not exposed to the test peptide and MTT), and An represents the average absorbance of the wells in the negative control group (cells not exposed to the test peptide).
(§4) The anti-proliferative activities of peptides against HCT-116, NCI-H838 (H838), U251MG, PC-3, and NCI-H157 cell lines were determined by MTT cell viability assay, and the details were described in Section 2.9.

U251MG cells = format: cell-based; conditions: 24 h
Method: as §3, §4

PC-3 cells = format: cell-based; conditions: 24 h
Method: as §3, §4

NCI-H157 cells = format: cell-based; conditions: 24 h
Method: as §3, §4

HCT-116 cells = format: cell-based; conditions: 24 h
Method: as §3, §4

[5] = tested on: K. pneumoniae (ATCC BAA-1705); experiment: microbe, parasite or virus in culture; format: cell-based, Klebsiella pneumoniae; conditions: for MBC: ATCC BAA-1705, 18 h; for MIC: ATCC BAA-1705, 24 h
Method: as §1

[6] = tested on: K. pneumoniae (ATCC 43816) biofilm; format: cell-based, Klebsiella pneumoniae; conditions: ATCC 43816, 24 h
Method: as §2

| Compound | MBC [1] [µM] | MIC [1] [µM] | MBC [2] [µM] | MIC [2] [µM] | MBIC [3] [µM] | MBIC [4] [µM] | IC50 (NCI-H838 (H838) cells) [µM] | IC50 (U251MG cells) [µM] | IC50 (PC-3 cells) [µM] | IC50 (NCI-H157 cells) [µM] | IC50 (HCT-116 cells) [µM] | MBC [5] [µM] | MIC [5] [µM] | MBIC [6] | MBC ([1]; read-out: MBC) [µM] | MIC ([1]; read-out: MIC) [µM] | MBC ([2]; read-out: MBC) [µM] | MIC ([2]; read-out: MIC) [µM] | MBC ([5]; read-out: MBC) [µM] | MIC ([5]; read-out: MIC) [µM] |
| --- | --- | --- | --- | --- | --- | --- | --- | --- | --- | --- | --- | --- | --- | --- | --- | --- | --- | --- | --- | --- |
| FLPKIIGKLSSKLPKIF-NH2 [Temporin-PKE-4K] | 32 | 32 | 64 | 64 | 256 | 128 | 35.3 | 85.5 | 49.5 | 27.8 | 99.4 | 32 | 32 | 256 µM |  |  |  |  |  |  |
| FLPLIIGALSSLLPKIF-NH2 [Temporin-PKE] |  |  |  |  | 32 | >512 | 16.4 | 23.2 | 7.29 | 17.4 | 21.3 |  |  | >512 µM | >512 | >512 | >512 | >512 | >512 | >512 |
| FLPKIIGKLSSLLPKIF-NH2 [Temporin-PKE-3K] | 8 | 8 | 16 | 16 | 4 | 64 | 0.51 | 2.83 | 3.01 | 3.29 | 0.38 | 8 | 8 | 32 µM |  |  |  |  |  |  |
| CC[C@@H](C)[C@@H](NC(=O)[C@H](CCCCN)NC(=O)[C@@H]1CCCN1C(=O)[C@H](CC(C)C)NC(=O)[C@H](CC(C)C)NC(=O)[C@H](CO)NC(=O)[C@H](CO)NC(=O)[C@H](CC(C)C)NC(=O)[C@H](C)NC(=O)CNC(=O)[C@@H](NC(=O)[C@@H](NC(=O)[C@H](CC(C)C)NC(=O)[C@@H]1CCCN1C(=O)[C@H](CC(C)C)NC(=O)[C@@H](N)Cc1ccccc1)[C@@H](C)CC)[C@@H](C)CC)C(=O)N[C@@H](Cc1ccccc1)C(N)=O [Temporin-PKE-i] (H-FLPLIIGALSSLLPK[dI]F-NH2) |  |  |  |  | 4 | >512 | 5.28 | 4.46 | 3.35 | 2.94 | 3.07 |  |  | >512 µM | >512 | >512 | >512 | >512 | >512 | >512 |
| FLPLIIGKLSSLLPKIF-NH2 [Temporin-PKE-2K] | 32 | 32 |  |  | 16 | >512 | 3.07 | 2.49 | 2.64 | 2.78 | 2.84 | 16 | 16 | 128 µM |  |  | 256 | 128 |  |  |
| FLPLIIGALSSKLPKIF-NH2 [Temporin-PKE-K12] | 64 | 64 | 256 | 256 | 64 | >512 | 22.7 | 25.8 | 27.3 | 24 | 22.1 | 64 | 64 | 512/>512 μM |  |  |  |  |  |  |
| CC[C@@H](C)[C@@H](NC(=O)[C@H](CCCCN)NC(=O)[C@@H]1CCCN1C(=O)[C@H](CC(C)C)NC(=O)[C@H](CC(C)C)NC(=O)[C@H](CO)NC(=O)[C@H](CO)NC(=O)[C@H](CC(C)C)NC(=O)[C@H](C)NC(=O)CNC(=O)[C@H](NC(=O)[C@H](NC(=O)[C@H](CC(C)C)NC(=O)[C@@H]1CCCN1C(=O)[C@H](CC(C)C)NC(=O)[C@@H](N)Cc1ccccc1)[C@H](C)CC)[C@H](C)CC)C(=O)N[C@@H](Cc1ccccc1)C(N)=O [Temporin-PKE-3i] (H-FLPL[dI][dI]GALSSLLPK[dI]F-NH2) |  |  |  |  | 128 | >512 | 193 | 121 | 167 | 71.2 | 72.1 |  |  | >512 µM | >512 | >512 | >512 | >512 | >512 | >512 |
